According to patent publication US9228121B2, “Process for the co-encapsulation of biocidally active compounds in clay minerals functionalized by nitrogen compounds” (Clariant S.A., priority 2010, dated 2016):

What was measured:
Algae suspension = assay: Algae growth test on leached dry paint film; type: cell-based; conditions: ppm of BKC relatively to the paint, after leaching
Protocol: Test specimens were prepared by application of two paint coats on watercolor paper ([…]) for each biocidal composition. After application, test specimens were dried during 7 days. After drying, coated substrates were cut in 30 mm squares. The test specimens were evaluated after a leaching test where the coated substrates were leached for 8 and 24 hours in 2 L containers of water with a flow rate such that there are 6 changes of the water in a period of 24 hours. Coated substrates were dried to room temperature for 48 hours and then evaluated in terms of microbiological effectiveness. The algicidal effect on dry film was evaluated as described bellow: Inoculums were prepared with a suspension of algae species (Trentepohlia odorata, Chlorella sp and Scenedesmus quadricauda) at concentration of 10^6 cells/mL. Coated substrates were placed on the center of a pre-poured Bold's Basal Medium agar plates. A thin coat of the algae suspension was applied over the plates. Plates were incubated with humidity ≧85%, 25° C. and cycle of 12 hours light and 12 hours darkness. For each biocidal composition the test was done three times. The algae growth on the sample surface was evaluated weekly for 3 weeks using the following scale: […]

[1] = Tray test for leaching of biocides from paint film; type: physicochemical; conditions: paint with 1000 ppm biocidally active agent, 500 mL distilled water, detection limit 50 ppm
Protocol: Additionally, the leaching of biocides was evaluated through a tray test in which 50 g of the a paint formulation containing 1000 ppm of biocidally active agent was applied in the bottom of a tray (23.5×38.0 cm) each time and the painting procedure was repeated twice. The film was dried at room temperature for seven days and then 500 mL of distilled water was added to the tray, after 1, 3, 6 and 24 hours a 10 mL sample were taken and analyzed for determination of the biocides.

C12/C14-alkyldimethyl benzyl ammonium chloride [Dodigen ® 2808]
Effective concentration against algae (ppm relatively to the paint) (Algae suspension): >>2000 ppm of BKC
Effective concentration against algae (ppm relatively to the paint) (Algae suspension; listed as neat BKC): > 2000 ppm
Tray test: biocide leached into water ([1]; 1 hour): 164 ppm
Tray test: biocide leached into water ([1]; 3 hours): 177 ppm
Tray test: biocide leached into water ([1]; 6 hours): 190 ppm
Tray test: biocide leached into water ([1]; 24 hours): 224 ppm
